Entries after “also recorded” stand apart in the source; their conditions may differ.
What was measured:
[1] = tested on: Vibrio fischeri quorum sensing system; assay: Agonistic activity: induction of bioluminescence in recombinant E. coli NM522 with sensor plasmid pSB401; assay type: cell-based
Procedure: (§1) The recombinant Escherichia coli strain NM522 with the sensor plasmid pSB401 was used to measure the induction of luminescence. Bacterial cultures were grown in Luria broth (50 mL) at 30 °C. After 18 h, this bacterial culture was diluted 10 times to be used in the assay using 96-well plates (100 µL per well). For agonistic activity, compounds were tested at increasing concentrations in DMSO (max 2% in a total volume of 200 µL of LB). For antagonistic activity, compounds were tested in competition with OHHL (200 nM) at increasing concentrations in DMSO (max 2% in a total volume of 200 µL). This 200 nM concentration of OHHL is fully pertinent since concentrations as low as 10 or 50 nM are already valid protocols as reported in meaningful studies. Bioluminescence was measured with a Tecan spark luminometer (Männedorf, Switzerland).
(§2) All compounds were evaluated for the ability to induce bioluminescence (agonistic activity) or to decrease bioluminescence in the presence of 3-oxo-hexanoyl-L-homoserine lactone (OHHL) at 200 nM (antagonistic activity). Hydrazide AHL analogues were deprived of any activity.

[2] = tested on: Vibrio fischeri quorum sensing system; assay: Antagonistic activity: decrease of bioluminescence in competition with OHHL (200 nM) in recombinant E. coli NM522 with sensor plasmid pSB401; assay type: cell-based; conditions: for residual bioluminescence: 100 µM of analogue in competition with 200 nM OHHL; for IC50: increasing concentration of compound in competition with 200 nM OHHL
Procedure: as §1, §2
A first assessment of the antagonistic activity was performed by measuring residual bioluminescence at 100 µM concentration of analogues in competition with 200 nM of OHHL. […] A residual bioluminescence of 42% for the L-butyl carbamate derivative 2 vs. 89% for the D-isomer 3 was measured showing the influence of the configuration on luminescence and therefore on QS inhibition.
To determine IC50 values, the decrease of bioluminescence of was measured using increasing concentration of each compound in presence of 200 nM of OHHL (Table 1). Values ranging from 22 to 94 µM, in the range of other reported of AHL-structurally related QS inhibitors, were measured for compounds 2, 4–7, and 9–11. Differences in the calculated LogP values are consistent with inhibitory activity for most compounds except 4-nitrobenzyl analogues. This is the case for all thiocarbamates vs. carbamates, and also when comparing the butyl (2) and hexyl (4) derivatives, or the benzyl and 4-bromobenzyl substituents.

Row | SMILES | residual bioluminescence [2] [%] | IC50 [2] [µM] | also measured
1 | CCOC(=O)N[C@H]1CCOC1=O [Compound 1, N-(ethoxycarbonyl)-L-homoserine lactone] | – | – | bioluminescence induced, relative to that obtained with the natural ligand OHHL at 200 nM ([1]; compound at 200 µM, OHHL reference at 200 nM): 18%; agonistic activity ([1]; induction of bioluminescence, increasing concentrations): weak agonistic activity; also recorded: very weak agonistic activity
2 | CCCCOC(=O)N[C@H]1CCOC1=O [Compound 2, N-(butoxycarbonyl)-L-homoserine lactone] | 42 | 94 | –
3 | CCCCSC(=O)N[C@H]1CCOC1=O [Compound 9, N-(butylthiocarbonyl)-L-homoserine lactone] | – | 45 | –
4 | CCCCOC(=O)N[C@@H]1CCOC1=O [Compound 3, N-(butoxycarbonyl)-D-homoserine lactone] | 89 | – | –
5 | CCCCCCOC(=O)N[C@H]1CCOC1=O [Compound 4, N-(hexyloxycarbonyl)-L-homoserine lactone] | 22 | 73 | –
6 | O=C(N[C@H]1CCOC1=O)OCc1ccccc1 [Compound 5, N-(benzyloxycarbonyl)-L-homoserine lactone] | – | 86 | –
7 | O=C(N[C@H]1CCOC1=O)SCc1ccccc1 [Compound 10, N-(benzylthiocarbonyl)-L-homoserine lactone] | – | 64 | –
8 | O=C(N[C@H]1CCOC1=O)OCc1ccc(Br)cc1 [Compound 6, N-(4-bromobenzyloxycarbonyl)-L-homoserine lactone] | – | 64 | –
